Earlier results on one compound are cited in patent US20190015339A1, “PHARMACEUTICAL COMBINATION FORMULATION” (SHIN POONG PHARMACEUTICAL CO., LTD., priority 2015, published 2019).

Like-named read-outs stand apart in the source and are kept apart here.

As for `CCOc1nc2cccc(C(=O)OC(C)OC(=O)OC3CCCCC3)c2n1Cc1ccc(-c2ccccc2-c2nnn[nH]2)cc1` (centres unmarked) [candesartan cilexetil], the absolute bioavailability result runs as follows: (used as a solution) “about 40%”; (used as a tablet formulation) “about 15%”.
